Data: patent US20250099475A1, “METHODS OF TREATING HYPERTENSION BY PERIODIC SUPPRESSION OF ALDOSTERONE SYNTHASE” (Mineralys Therapeutics, Inc., priority 2022, published 2025)
Marks after values point to notes of the source that are not given here.

Key:
[1] = Example 4 dose-ranging study: safety (adverse events, serum potassium, eGFR); format: in vivo, human
Experimental: Subjects orally administered the assigned study drug (Compound A HBr or placebo) according to the assigned dosing regimen for 8 weeks beginning on Study Day 1. All subjects in Part 1 (regardless of dosing group) received BID dosing to preserve the integrity of the blind; active drug is administered as the morning dose for all QD dose groups. Subjects returned to the research facility or were seen by the clinical investigator or approved home health care professional at the end of Study Weeks 1, 2, 3, 4, 5, 6, 7, and 8 (±2 days) for protocol-defined efficacy and safety assessments and procedures, assessment of adverse events (AEs), and confirmation of compliance with study drug usage. Subjects also completed a telephone visit and blood pressure (BP) check at home approximately 3 days post last dose of study drug. Subjects attended up to 14 full clinic visits, including a pre-Screening visit, a Screening/start of Placebo Run-in visit, a second visit during Placebo Run-in, a clinic visit to initiate the ABPM procedure, a Randomization visit, 8 weekly visits during double-blind treatment, and an end-of-study visit scheduled 4 weeks after the last study treatment for final efficacy and safety assessments.

[2] = Phase 1 parts 3 and 4: sex- and age-related effects on PK; format: in vivo, human; details: single 100-mg dose; not statistically significant
Experimental: Part 3 of the study evaluated the sex-related effects on the safety, tolerability, and PK of Compound A HBr. In 1 cohort of 8 healthy Caucasian women aged 20 to 35 years (inclusive), 6 participants were randomized to receive a single 100-mg dose of Compound A HBr and 2 participants were randomized to receive matching placebo. Compound A HBr or placebo was administered in the fasted state. The results were compared with those in the cohort at the same dose as in Part 1.
Part 4 of the study evaluated the age-related effects on safety, tolerability, and PK of Compound A HBr. In 1 cohort of 8 healthy Caucasian men aged 68 to 80 years, 6 participants were randomized to receive a single 100-mg dose of Compound A HBr and 2 participants were randomized to receive matching placebo. Compound A HBr or placebo were administered in the fasted state. The results were compared with those in the cohort at the same dose as in Part 1.
A linear model was used to analyze log-transformed AUC and Cmax with sex or age as fixed effects. Difference in least square means (LSM) and corresponding 90% CI were back-transformed to obtain the estimates of geometric mean ratios and their CI for females vs. males and ≥65 years vs. <65 years participants.

[3] = biological target: T1, CYP 11β2 beta hydroxylase (Homo sapiens, UniProt P19099); test: PKPD modeling of SAD study data: time above IC50; format: in vivo; details: aldosterone
T1 construct: estimated based on PKPD modeling of data from the SAD study; from tissue; host or cells: adrenal cortex of human study subjects (in vivo)
T1 sequence (P19099 25-503): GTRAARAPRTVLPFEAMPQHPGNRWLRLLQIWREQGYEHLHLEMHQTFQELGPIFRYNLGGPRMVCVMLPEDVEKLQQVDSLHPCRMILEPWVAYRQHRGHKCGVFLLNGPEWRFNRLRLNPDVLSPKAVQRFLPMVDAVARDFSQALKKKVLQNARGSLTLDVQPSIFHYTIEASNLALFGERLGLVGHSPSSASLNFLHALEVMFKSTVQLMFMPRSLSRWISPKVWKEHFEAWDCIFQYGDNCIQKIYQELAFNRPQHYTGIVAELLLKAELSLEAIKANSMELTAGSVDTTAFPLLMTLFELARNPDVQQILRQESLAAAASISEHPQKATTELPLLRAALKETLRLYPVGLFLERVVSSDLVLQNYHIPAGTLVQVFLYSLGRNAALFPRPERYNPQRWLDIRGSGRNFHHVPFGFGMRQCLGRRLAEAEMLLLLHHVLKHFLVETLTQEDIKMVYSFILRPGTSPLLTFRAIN
Experimental: A randomized, double-blinded, placebo-controlled study was conducted in which 116 patients were randomized and 87 received Compound A HBr.
A single ascending dose (SAD) study was conducted with the following dosing amounts tested: • (a) 5 mg • (b) 10 mg • (c) 20 mg • (d) 50 mg • (e) 100 mg • (f) 200 mg • (g) 400 mg • (h) 800 mg.
The IC50 of inhibition of CYP […] by Compound A HBr and the time above IC50 for each dosing amount were estimated based on PKPD modeling of data from the SAD study.

[4] = pooled (Part 1 and Part 2) 100 mg QD safety set (n=60)

CC(=O)N[C@H]1CC[C@H](NC(=O)CN2CCN(c3nncc(-c4ccc(C)cc4)n3)CC2)CC1 [Compound A HBr]
Study drug discontinuation: Hyperkalemia, subjects (%) ([1]; 100 mg QD Pooled, N 60): 2 (3.3%) | Study drug discontinuation: Hyponatremia, subjects (%) ([1]; 100 mg QD Pooled, N 60): 1 (1.7%) | Study drug discontinuation: Hypotension, subjects (%) ([1]; 100 mg QD Pooled, N 60): 2 (3.3%) | Study drug discontinuation: Other possibly related, subjects (%) ([1]; 100 mg QD Pooled, N 60): 1 (1.7%) | Study drug discontinuation: Other unrelated, subjects (%) ([1]; 100 mg QD Pooled, N 60): 4 (6.7%) | Individuals with verified or multiple increased Serum K+ 5.2-5.5 mMol/L, number (%) ([1]; 100 mg QD, Part 1): 5 (18.5%) | Individuals with verified or multiple increased Serum K+ 5.6-6.0 mMol/L, number (%) ([1]; 100 mg QD, Part 1): 3 (10.7%) | Individuals with verified or multiple increased Serum K+ 6.1-6.5 mMol/L, number (%) ([1]; 100 mg QD, Part 1): 0 | Individuals with increased Serum K+ >6.5 mMol/L, number ([1]; 100 mg QD, Part 1, isolated incident not verified by repeat measurement): 1* | Individuals with verified or multiple increased Serum K+ 5.2-5.5 mMol/L, number (%) ([1]; 100 mg QD, Part 2): 1 (4%) | Individuals with verified or multiple increased Serum K+ 5.6-6.0 mMol/L, number (%) ([1]; 100 mg QD, Part 2): 0 | Individuals with verified or multiple increased Serum K+ 6.1-6.5 mMol/L, number (%) ([1]; 100 mg QD, Part 2): 0 | Individuals with verified or multiple increased Serum K+ >6.5 mMol/L, number ([1]; 100 mg QD, Part 2): 0 | Individuals with verified or multiple increased Serum K+ 5.2-5.5 mMol/L, number (%) ([1]; 100 mg QD, Pooled): 6 (10.3%) | Individuals with verified or multiple increased Serum K+ 5.6-6.0 mMol/L, number (%) ([1]; 100 mg QD, Pooled): 3 (5.2%) | Individuals with verified or multiple increased Serum K+ 6.1-6.5 mMol/L, number (%) ([1]; 100 mg QD, Pooled): 0 | Individuals with verified or multiple increased Serum K+ >6.5 mMol/L, number ([1]; 100 mg QD, Pooled): 0 | Study drug discontinuation: Hyperkalemia, subjects (%) ([1]; Part 1 100 mg QD, N 29): 2 (6.9%) | Study drug discontinuation: Hyponatremia, subjects (%) ([1]; Part 1 100 mg QD, N 29): 0 | Study drug discontinuation: Hypotension, subjects (%) ([1]; Part 1 100 mg QD, N 29): 1 (3.4%) | Study drug discontinuation: Other possibly related, subjects (%) ([1]; Part 1 100 mg QD, N 29): 1 (3.4%) | Study drug discontinuation: Other unrelated, subjects (%) ([1]; Part 1 100 mg QD, N 29): 3 (6.0%) | Change in group mean serum potassium (K+), Mean ([1]; Part 1, N 26 (dose not given)): +0.50 mMol/L | Study drug discontinuation: Hyperkalemia, subjects (%) ([1]; Part 1 All active, N 159): 6 (3.8%) | Study drug discontinuation: Hyponatremia, subjects (%) ([1]; Part 1 All active, N 159): 0 | Study drug discontinuation: Hypotension, subjects (%) ([1]; Part 1 All active, N 159): 2 (1.2%) | Study drug discontinuation: Other possibly related, subjects (%) ([1]; Part 1 All active, N 159): 1 (0.6%) | Study drug discontinuation: Other unrelated, subjects (%) ([1]; Part 1 All active, N 159): 11 (6.9%) | Study drug discontinuation: Hyperkalemia, subjects (%) ([1]; Part 2 100 mg QD, N 31): 0 | Study drug discontinuation: Hyponatremia, subjects (%) ([1]; Part 2 100 mg QD, N 31): 1 (3.4%) | Study drug discontinuation: Hypotension, subjects (%) ([1]; Part 2 100 mg QD, N 31): 1 (2.8%) | Study drug discontinuation: Other possibly related, subjects (%) ([1]; Part 2 100 mg QD, N 31): 0 | Study drug discontinuation: Other unrelated, subjects (%) ([1]; Part 2 100 mg QD, N 31): 1 (2.8%) | Change in group mean serum potassium (K+), Mean ([1]; Part 2, N 31 (dose not given)): +0.23 mMol/L | Change in group mean serum potassium (K+), Mean ([1]; Pooled, N 57 (dose not given)): +0.35 mMol/L | Study drug discontinuation: Hyperkalemia, subjects (%) ([1]; Total active, N 190): 6 (3.2%) | Study drug discontinuation: Hyponatremia, subjects (%) ([1]; Total active, N 190): 1 (0.5%) | Study drug discontinuation: Hypotension, subjects (%) ([1]; Total active, N 190): 3 (1.6%) | Study drug discontinuation: Other possibly related, subjects (%) ([1]; Total active, N 190): 1 (0.5%) | Study drug discontinuation: Other unrelated, subjects (%) ([1]; Total active, N 190): 12 (6.3%) | change in eGFR ([1]; dosing cohorts): dose-dependent and reversible reduction in eGFR | effects on serum cortisol [1, 4]: no effects on serum cortisol | episodes of hyperkalemia [1, 4]: few episodes of mild or moderate hyperkalemia and no episodes of severe hyperkalemia | serious adverse events (SAEs) related to the study medication ([1]; whole trial): No serious adverse events (SAEs) related to the study medication | AUC higher in female than in male participants [2]: 19% | AUC lower in men aged ≥65 years vs <65 years [2]: ~12% | Cmax higher in female than in male participants [2]: 25% | Cmax lower in men aged ≥65 years vs <65 years [2]: approximately 14% | % 24 hr above IC50 ([3]; 12.5 mg BID): 25% | % 24 hr above IC50 ([3]; 12.5 mg QD): 8% | % 24 hr above IC50 ([3]; 25 mg BID): 52% | % 24 hr above IC50 ([3]; 50 mg QD): 38% | % 24 hr above IC50 ([3]; 100 mg QD): 56%
